Numbered stars: 1 amine (or outer) side, 2 acyl side, 3 side chain; on linkers, the order of the positions; unused ones are H or OH. Bridge positions count the residues as written; N and C are the ends. Peptide text beside a SMILES is read from it. I, II: the chains in the order shown. Rhodamine110 = O=C1OC2(c3ccc(N[*:1])cc3Oc3cc(N[*:2])ccc32)c2ccccc21
How the values were obtained:
Format in all cases: cell-based, human
[1] = tested on: monocytes; assay: aberrant enzyme activities in febrile children, monocytes (Table 7)
[2] = tested on: granulocytes; assay: enzyme activity with fluorogenic substrate, normal granulocytes (Table 3A)
[3] = tested on: monocytes; assay: enzyme activity with fluorogenic substrate, normal monocytes (Table 3A)
[4] = tested on: granulocytes; assay: aberrant enzyme activities in febrile children, granulocytes (Table 7)
[5] = tested on: lymphocytes; assay: aberrant enzyme activities in febrile children, lymphocytes (Table 7)
[6] = tested on: lymphocytes; assay: enzyme activity with fluorogenic substrate, normal lymphocytes (Table 3A)
[7] = P89 Viral Stomatitis, listed as Val/Lys-M
[8] = P95 Viral Syndrome, listed as Val/Lys-M
[9] = P96 Viral Syndrome, listed as Val/Lys-M
[10] = P97 Pyelonephritis, listed as Val/Lys-M
[11] = P88 Enteritis, listed as Z-Gly/Pro-M

## C[C@H](NC(=O)CNC(=O)[C@H](Cc1ccccc1)NC(=O)CN)C(=O)Nc1ccc2c(c1)Oc1cc(NC(=O)[C@H](C)NC(=O)CNC(=O)[C@H](Cc3ccccc3)NC(=O)CN)ccc1C21OC(=O)c2ccccc21 [GFGA, (Gly-Phe-Gly-Ala)2 Rho 110] (I: H-GFGA / II: H-GFGA; linker I:C-II:C via Rhodamine110)
[1]; P88 Enteritis
  aberrant enzyme activity, MONOS: .smallcircle.
[1]; P89 Viral Stomatitis
  aberrant enzyme activity, MONOS: .smallcircle.
[1]; P92 Adenitis
  aberrant enzyme activity, MONOS: .smallcircle.
[1]; P97 Pyelonephritis
  aberrant enzyme activity, MONOS: .smallcircle.
[1]; P103 Viral Syndrome
  aberrant enzyme activity, MONOS: .smallcircle.
[2]
  NORMAL LEUKOCYTE ENZYME ACTIVITY GRANS Mean: 1.00
[3]
  NORMAL LEUKOCYTE ENZYME ACTIVITY MONOS Mean: 1.01
[4]; P88 Enteritis
  aberrant enzyme activity, GRANS: .smallcircle.
[4]; P89 Viral Stomatitis
  aberrant enzyme activity, GRANS: .smallcircle.
[4]; P92 Adenitis
  aberrant enzyme activity, GRANS: .smallcircle.
[4]; P97 Pyelonephritis
  aberrant enzyme activity, GRANS: .smallcircle.
[4]; P103 Viral Syndrome
  aberrant enzyme activity, GRANS: .smallcircle.
[5]; P88 Enteritis
  aberrant enzyme activity, LYMPHS: .smallcircle.
[5]; P89 Viral Stomatitis
  aberrant enzyme activity, LYMPHS: .smallcircle.
[5]; P92 Adenitis
  aberrant enzyme activity, LYMPHS: .smallcircle.
[5]; P97 Pyelonephritis
  aberrant enzyme activity, LYMPHS: .smallcircle.
[5]; P103 Viral Syndrome
  aberrant enzyme activity, LYMPHS: .smallcircle.
[6]
  NORMAL LEUKOCYTE ENZYME ACTIVITY LYMPHS Mean: 0.36

## CC(C)[C@H](N)C(=O)N[C@@H](CCCCN)C(=O)Nc1ccc2c(c1)Oc1cc(NC(=O)[C@H](CCCCN)NC(=O)[C@@H](N)C(C)C)ccc1C21OC(=O)c2ccccc21 [VK-M, (Val-Lys)2 Rho 110 (modified)]
[1]; P88 Enteritis
  aberrant enzyme activity, MONOS: - (>0.25 Decrease over normal range)
[1]; [7]
  aberrant enzyme activity, MONOS: .smallcircle.
[1]; P92 Adenitis, listed as Val/Lys-M
  aberrant enzyme activity, MONOS: - (>0.25 Decrease over normal range)
[1]; P95 Viral Syndrome
  aberrant enzyme activity, MONOS: .smallcircle.
[1]; P96 Viral Syndrome
  aberrant enzyme activity, MONOS: .smallcircle.
[1]; P97 Pyelonephritis
  aberrant enzyme activity, MONOS: .smallcircle.
[1]; P101 Fever -- Unknown Origin, listed as Val/Lys-M
  aberrant enzyme activity, MONOS: - (>0.25 Decrease over normal range)
[1]; P102 UTI
  aberrant enzyme activity, MONOS: - (>0.25 Decrease over normal range)
[1]; P103 Viral Syndrome, listed as Val/Lys-M
  aberrant enzyme activity, MONOS: .smallcircle.
[2]
  NORMAL LEUKOCYTE ENZYME ACTIVITY GRANS Mean: 4.31
[3]
  NORMAL LEUKOCYTE ENZYME ACTIVITY MONOS Mean: 43.37
[4]; P88 Enteritis
  aberrant enzyme activity, GRANS: - (>0.25 Decrease over normal range)
[4]; [7]
  aberrant enzyme activity, GRANS: .smallcircle.
[4]; P92 Adenitis
  aberrant enzyme activity, GRANS: .smallcircle.
[4]; [8]
  aberrant enzyme activity, GRANS: + (>0.25 Increase over normal range)
[4]; [9]
  aberrant enzyme activity, GRANS: + (>0.25 Increase over normal range)
[4]; [10]
  aberrant enzyme activity, GRANS: .smallcircle.
[4]; P101 Fever -- Unknown Origin
  aberrant enzyme activity, GRANS: .smallcircle.
[4]; P102 UTI, listed as Val/Lys-M
  aberrant enzyme activity, GRANS: - (>0.25 Decrease over normal range)
[4]; P103 Viral Syndrome
  aberrant enzyme activity, GRANS: .smallcircle.
[5]; P88 Enteritis
  aberrant enzyme activity, LYMPHS: .smallcircle.
[5]; P89 Viral Stomatitis
  aberrant enzyme activity, LYMPHS: .smallcircle.
[5]; P92 Adenitis
  aberrant enzyme activity, LYMPHS: .smallcircle.
[5]; [8]
  aberrant enzyme activity, LYMPHS: + (>0.25 Increase over normal range)
[5]; [9]
  aberrant enzyme activity, LYMPHS: + (>0.25 Increase over normal range)
[5]; [10]
  aberrant enzyme activity, LYMPHS: + (>0.25 Increase over normal range)
[5]; P101 Fever -- Unknown Origin
  aberrant enzyme activity, LYMPHS: .smallcircle.
[5]; P102 UTI
  aberrant enzyme activity, LYMPHS: .smallcircle.
[5]; P103 Viral Syndrome
  aberrant enzyme activity, LYMPHS: .smallcircle.
[6]
  NORMAL LEUKOCYTE ENZYME ACTIVITY LYMPHS Mean: 2.05

## O=C(NCC(=O)N1CCC[C@H]1C(=O)Nc1ccc2c(c1)Oc1cc(NC(=O)[C@@H]3CCCN3C(=O)CNC(=O)OCc3ccccc3)ccc1C21OC(=O)c2ccccc21)OCc1ccccc1 [Z-GP-M, (carbobenzyloxycarbonyl-Gly-Pro)2 Rho 110 (modified)]
[1]; [11]
  aberrant enzyme activity, MONOS: - (>0.25 Decrease over normal range)
[1]; P89 Viral Stomatitis
  aberrant enzyme activity, MONOS: .smallcircle.
[1]; P92 Adenitis
  aberrant enzyme activity, MONOS: - (>0.25 Decrease over normal range)
[1]; P97 Pyelonephritis
  aberrant enzyme activity, MONOS: .smallcircle.
[1]; P103 Viral Syndrome
  aberrant enzyme activity, MONOS: .smallcircle.
[2]
  NORMAL LEUKOCYTE ENZYME ACTIVITY GRANS Mean: 130.62
[3]
  NORMAL LEUKOCYTE ENZYME ACTIVITY MONOS Mean: 119.81
[4]; [11]
  aberrant enzyme activity, GRANS: - (>0.25 Decrease over normal range)
[4]; P92 Adenitis
  aberrant enzyme activity, GRANS: - (>0.25 Decrease over normal range)
[4]; P97 Pyelonephritis
  aberrant enzyme activity, GRANS: .smallcircle.
[4]; P103 Viral Syndrome
  aberrant enzyme activity, GRANS: .smallcircle.
[5]; [11]
  aberrant enzyme activity, LYMPHS: - (>0.25 Decrease over normal range)
[5]; P89 Viral Stomatitis
  aberrant enzyme activity, LYMPHS: - (>0.25 Decrease over normal range)
[5]; P92 Adenitis
  aberrant enzyme activity, LYMPHS: - (>0.25 Decrease over normal range)
[5]; P97 Pyelonephritis, listed as Z-Gly/Pro-M
  aberrant enzyme activity, LYMPHS: - (>0.25 Decrease over normal range)
[5]; P103 Viral Syndrome
  aberrant enzyme activity, LYMPHS: - (>0.25 Decrease over normal range)
[6]
  NORMAL LEUKOCYTE ENZYME ACTIVITY LYMPHS Mean: 53.74

Reference: patent US5698411A, “Method for determining activity of enzymes in metabolically active whole cells” (priority 1995, dated 1997)
